Measured values published in patent US4639541A, “Substituted phenylacetic acid iodopropargyl esters, biocidal agents containing same and process for manufacturing same” (priority 1984, dated 1987).

How the values were obtained:
Colletotrichum coffeanum = experiment: Spore germination test, Colletotrichum coffeanum; assay type: cell-based; details: 48 hours, 20° C., vs untreated control
Experimental: (§1) 50 μl of a solution or suspension of an active ingredient according to the invention together with 50 μl of a spore suspension produced by washing spores of an agar culture with a nutrient solution that contained per liter 10 g of sugar, 1 g of glycol, 1 g of KH2 PO4 and 0.5 g of MgSO4 were introduced into the concave-ground portion of concave-ground microscope slides.
(§2) The microscope slides were stored at 20° C. for 48 hours in a Petri dish, the base of which was covered with a moistened filter paper.
(§3) Subsequently, the ratio of germinated and non-germinated spores was compared with an untreated control specimen.
(§4) The degree of activity was calculated as a percentage in accordance with the following formula: [formula]

Fusarium culmorum = experiment: Spore germination test, Fusarium culmorum; assay type: cell-based; details: 48 hours, 20° C., vs untreated control
Experimental: as §1, §2, §3, §4

Botrytis cinerea [1] = experiment: Spore germination test, Botrytis cinerea; assay type: cell-based; details: 48 hours, 20° C., vs untreated control
Experimental: as §1, §2, §3, §4

Fusarium nivale = experiment: Spore germination test, Fusarium nivale; assay type: cell-based; details: 48 hours, 20° C., vs untreated control
Experimental: as §1, §2, §3, §4

Penicillium glaucum = experiment: Spore germination test, Penicillium glaucum; assay type: cell-based; details: 48 hours, 20° C., vs untreated control
Experimental: as §1, §2, §3, §4

Verticillium dahliae = experiment: Spore germination test, Verticillium dahliae; assay type: cell-based; details: 48 hours, 20° C., vs untreated control
Experimental: as §1, §2, §3, §4

Alternaria tenuis = experiment: Spore germination test, Alternaria tenuis; assay type: cell-based; details: 48 hours, 20° C., vs untreated control
Experimental: as §1, §2, §3, §4

Botrytis cinerea [2] = experiment: Fungicidal activity against Botrytis cinerea in broad beans; assay type: in vivo; details: 500 ppm spray, broad beans "Midget", after 6 days, 20° C., 95% humidity, vs untreated
Experimental: Broad beans of the "Midget" variety were grown to a height of approximately 10 cm. The plants were sprayed until dripping wet with spray liquors containing 500 ppm of active ingredient.
When the spray coating had dried, the plants were inoculated with a spore suspension of Botrytis cinerea. The plants were placed in a climatic cabinet at a constant 20° C. and an atmospheric humidity of 95%.
After 6 days, fungicidal activity was evaluated. The activity was ascertained in comparison with untreated specimens.
The degree of activity as a percentage was ascertained in accordance with the following formula [formula] The following were used as active ingredients: I 2-chloro-3,5-dinitrophenylacetic acid iodopropargyl ester

Row | Structure (SMILES) | degree of activity (fungal toxicity with respect to fungal spores) (Colletotrichum coffeanum; 2 ppm) [%] | degree of activity (fungal toxicity with respect to fungal spores) (Fusarium culmorum; 2 ppm) [%] | degree of activity (fungal toxicity with respect to fungal spores) (Botrytis cinerea [1]; 2 ppm) [%] | degree of activity (fungal toxicity with respect to fungal spores) (Fusarium nivale; 2 ppm) [%] | degree of activity (fungal toxicity with respect to fungal spores) (Penicillium glaucum; 2 ppm) [%] | degree of activity (fungal toxicity with respect to fungal spores) (Verticillium dahliae; 2 ppm) [%] | degree of activity (fungal toxicity with respect to fungal spores) (Alternaria tenuis; 2 ppm) [%] | degree of activity (fungal toxicity with respect to fungal spores) (Colletotrichum coffeanum; 1 ppm) [%] | degree of activity (fungal toxicity with respect to fungal spores) (Colletotrichum coffeanum; 4 ppm) [%] | degree of activity (fungal toxicity with respect to fungal spores) (Fusarium culmorum; 1 ppm) [%] | degree of activity (fungal toxicity with respect to fungal spores) (Fusarium culmorum; 4 ppm) [%] | degree of activity (fungal toxicity with respect to fungal spores) (Botrytis cinerea [1]; 1 ppm) [%] | degree of activity (fungal toxicity with respect to fungal spores) (Botrytis cinerea [1]; 4 ppm) [%] | degree of activity (fungal toxicity with respect to fungal spores) (Fusarium nivale; 1 ppm) [%] | degree of activity (fungal toxicity with respect to fungal spores) (Fusarium nivale; 4 ppm) [%] | degree of activity (fungal toxicity with respect to fungal spores) (Penicillium glaucum; 1 ppm) [%] | degree of activity (fungal toxicity with respect to fungal spores) (Penicillium glaucum; 4 ppm) [%] | degree of activity (fungal toxicity with respect to fungal spores) (Verticillium dahliae; 1 ppm) [%] | degree of activity (fungal toxicity with respect to fungal spores) (Verticillium dahliae; 4 ppm) [%] | degree of activity (fungal toxicity with respect to fungal spores) (Alternaria tenuis; 1 ppm) [%] | further results
1 | O=C(Cc1cc([N+](=O)[O-])c(Cl)c([N+](=O)[O-])c1Cl)OCC#CI [G] | 60 | 70 | 100 | 80 | 70 | 70 | 70 | – | – | – | – | – | – | – | – | – | – | – | – | – | –
2 | O=C(Cc1ccc([N+](=O)[O-])cc1)OCC#CI [F] | 90 | 40 | 40 | 80 | 80 | 90 | 100 | – | – | – | – | – | – | – | – | – | – | – | – | – | –
3 | O=C(Cc1cc([N+](=O)[O-])cc([N+](=O)[O-])c1Cl)OCC#CI [I] | – | – | – | – | – | – | – | – | – | – | – | – | – | – | – | – | – | – | – | – | % Activity against Botrytis cinerea in broad beans (Botrytis cinerea [2]): 80%
4 | O=C(OCC#CI)C(Br)c1ccc(Cl)cc1 (centres unmarked) [B] | 100 | 100 | 100 | 100 | 100 | 100 | 100 | 100 | 100 | 100 | 100 | 100 | 100 | 100 | 100 | 100 | 100 | 100 | 100 | 100 | degree of activity (fungal toxicity with respect to fungal spores) (Alternaria tenuis; 4 ppm): 100%
5 | O=C(Cc1c(Cl)c([N+](=O)[O-])cc([N+](=O)[O-])c1Cl)OCC#CI [K] | – | – | – | – | – | – | – | – | – | – | – | – | – | – | – | – | – | – | – | – | % Activity against Botrytis cinerea in broad beans (Botrytis cinerea [2]): 30%
6 | O=C(Cc1cc([N+](=O)[O-])c(Cl)cc1Cl)OCC#CI [E] | 100 | 100 | 30 | 100 | 100 | 30 | 100 | 100 | 100 | 100 | 100 | 30 | 40 | 100 | 100 | 100 | 100 | 30 | 40 | 100 | degree of activity (fungal toxicity with respect to fungal spores) (Alternaria tenuis; 4 ppm): 100%
7 | O=C(OCC#CI)C(Cl)c1ccccc1 (centres unmarked) [D] | 90 | 95 | 80 | 80 | 95 | 80 | 90 | 80 | 95 | 90 | 95 | 80 | 90 | 60 | 90 | 90 | 95 | 80 | 95 | 80 | degree of activity (fungal toxicity with respect to fungal spores) (Alternaria tenuis; 4 ppm): 90%
8 | O=C(Cc1c(Cl)cccc1Cl)OCC#CI [C] | 95 | 95 | 95 | 100 | 90 | 100 | 95 | 95 | 95 | 95 | 95 | 95 | 100 | 100 | 100 | 60 | 90 | 100 | 100 | 95 | degree of activity (fungal toxicity with respect to fungal spores) (Alternaria tenuis; 4 ppm): 95%
9 | O=C(Cc1ccc(Cl)cc1)OCC#CI [A] | 90 | 95 | 80 | 80 | 95 | 80 | 80 | 80 | 95 | 90 | 95 | 80 | 90 | 60 | 90 | 90 | 95 | 80 | 95 | 80 | degree of activity (fungal toxicity with respect to fungal spores) (Alternaria tenuis; 4 ppm): 90%
10 | Cc1cc(C)c(CC(=O)OCC#CI)c(C)c1 [L] | – | – | – | – | – | – | – | – | – | – | – | – | – | – | – | – | – | – | – | – | % Activity against Botrytis cinerea in broad beans (Botrytis cinerea [2]): 20%
